Data from paper PMC7394103 (Frontiers in Pharmacology, 2020).

Columns and labels:
[1] = system: CIA in DBA1/J mice; test: Collagen-induced arthritis (CIA), clinical score and histopathology; type: in vivo; conditions: 30 mg/kg i.p. daily; for CIA joint histopathology: day 8 to 42, vs saline; for CIA symptoms (clinical score): day 8 to 42, vs vehicle
Procedure: DBA1/J male mice (6–8 weeks) were obtained from The Jackson Laboratories (Bar Harbor, ME, USA). All animal experiments were performed in accordance with National Institutes of Health guidelines and approved by the Montana State University Institutional Animal Care and Use Committee.
To induce CIA in DBA1/J mice, immunization-grade bovine Type II collagen (CII) (Chondrex, Redmond, WA, USA) was solubilized in 0.05 M acetic acid (2 mg/ml), and 100 μg of CII emulsified in complete Freund’s adjuvant containing 4 mg/ml Mycobacterium tuberculosis (Chondrex) were injected subcutaneously (s.c.) in the tail ([Kochetkova et al., 2010]).
Mice were scored using a scale of 0 to 3 for each limb, with a maximal total score of 12, as previously described ([Schepetkin et al., 2015]): 0, no signs of inflammation; 1, mild redness or swelling of single digits; 2, significant swelling of ankle or wrist with erythema; and 3, severe swelling and erythema of multiple joints.
At 44 days after CII injection (CIA) or 14 days after anti-CII antibody injection (CAIA), the mice were euthanized, and their hind limbs were collected and fixed in 10% neutral buffered formalin. The limbs were decalcified in 5% formic acid for 3 to 6 days, and the joints were embedded in paraffin. Eight 8-μm sections were cut using a sagittal projection with 40 µm spacing of the cuts. Hematoxylin and eosin (H&E) and toluidine blue (TB) staining were performed for each sample.
H&E histopathological scores for the joints were determined by using a graded scale ([Schramm et al., 2004]), separately for cartilage destruction, pannus formation, and synovial cells changes. For cartilage destruction, the scale was: 0—normal, superficial zone is smooth; 1—superficial fibrillations, some loss of surface lamina; 2—vertical clefts/erosion to the calcified cartilage up to 25% of the surface; 3—vertical clefts/erosion to the calcified cartilage more than 25% of the surface, severe chondrocytes, and cartilage matrix loss with new bone tissue substitution, bone destruction. […] All sections of the hind paws and knee joints were examined, the highest score was recorded, with a total maximum score of 36 possible per mouse. The loss of the proteoglycans and cartilage degeneration was also scored in TB-stained sections on a graded scale of 0–3, as previously described ([Bernotiene et al., 2004]): 0—no cartilage loss; 1 – minimal chondrocytes and proteoglycan loss in superficial zone; 2—moderate chondrocytes and proteoglycan loss into middle zone but above tidemark; and 3—severe cartilage degeneration through tidemark, with the maximum score of 12 possible per mouse.

[2] = system: CAIA in BALB/c mice; test: Collagen-antibody-induced arthritis (CAIA), clinical score and histopathology; type: in vivo; conditions: for CAIA joint histopathology / severity of CAIA (mean arthritis score): 30 mg/kg i.p. daily; for CAIA joint histopathology: day 1 to 9, vs saline; for severity of CAIA (mean arthritis score): day 1 to 9, vs vehicle; for therapeutic effect in CAIA compared to IQ-1S: 30 mg/kg i.p., days 6 and 7
Procedure: CAIA was induced in 7- to 8-week-old BALB/c mice from Charles River Laboratories (Wilmington, MA, USA) by i.p. injection of a cocktail of monoclonal anti-CII antibodies (Chondrex; 1.5 mg/mouse) on day 0, followed by i.p. lipopolysaccharide (LPS) injection (30 μg LPS from Escherichia coli strain 0111:B4 in PBS) on day 3. Control animals received an equal volume of PBS.
Arthritis development was evaluated daily for 10 days post-injection of the monoclonal antibody cocktail. Arthritis symptoms were scored on scale of 0 to 4 in accordance with the Chondrex Mouse Arthritis Scoring System in a blinded manner, as follows: 0, no signs of inflammation; 1, mild redness or swelling of single joint (one of the interphalangeal joints, metacarpophalangeal joints, carpal joint for the front paw, and tarsal joint for the hind); 2, two joints have redness and swelling; 3, all three joint types have redness and swelling; 4, maximal redness and swelling of entire paw leads to the disappearance of anatomical definition.
In CAIA, animals were sacrificed on day 14, and their forward and hind limbs were processed as described above. Three sections in the sagittal projection of joints, 40 µm apart, were examined by the same system with the grades ranging 0 to 4. Total H&E histopathological score for three sections included cartilage destruction, pannus formation, and synovial cells changes. For cartilage destruction, the scale was: 0—normal, superficial zone is smooth; 1—superficial fibrillations, some loss of surface lamina; 2—vertical clefts/erosion to the calcified cartilage up to 25% of the surface; 3—vertical clefts/erosion to the calcified cartilage 25% to 50% of the surface, 4—vertical clefts/erosion to the calcified cartilage more than 50% of the surface, severe chondrocytes, and cartilage matrix loss with new bone tissue substitution. For pannus formation the scale was: 0—normal; 1—exudate in the joint; 2—single inflammatory cells in the exudate; 3—mild infiltration of the inflammatory cells; 4—heavy inflammatory infiltration and debris in the joint. For synovial membrane changes the scale was: 0 – normal, 1 to 2 layer of synovial lining cells; 1—initial hyperplasia of the cells and increased number of lining cells layers; 2—increased number of lining cell layers, more than 3 to 4 layers and/or proliferation of sub-synovial tissue; 3—more than 4 layers of lining cells, focal infiltration of inflammatory cells, proliferation of subsynovial tissue; 4—more than four layers of lining cells, diffused infiltration of inflammatory cells, proliferation of sub-synovial tissue.

[3] = system: MMP-1 secretion by SW982 cells; test: IL-1β-induced MMP-1 secretion by SW982 cells (ELISA); type: cell-based; conditions: Homo sapiens, 30 min compound, then 5 ng/ml IL-1β, 24 h, read-out: SW-982 MMP-1 IC50
Procedure: FLS, HUVEC, SW982, and THP-1 cells were plated in 96 well plates (10^4 to 10^5 cells/well) for 48 h before treatment. At 2 days post-confluency, the cells were serum-starved and washed twice (with the exception of THP-1 cell, which were not washed) with FBS-free medium prior to the addition of test compounds. The cells were incubated in the presence or absence of test compounds or DMSO (vehicle control) for 30 min at 37°C in a 5% CO2 atmosphere, IL-1β (5 ng/ml) was added, and the cells were incubated for an additional 24 h. Culture supernatants were collected and stored at –80°C. The levels of MMP-1 and MMP-3 were determined in culture supernatants using commercially available ELISA kits according to the manufacturer’s instructions (R&D System, Minneapolis, MN, USA). IL-6 levels were also determined in the supernatants using a human IL-6 ELISA kit (BD Biosciences, San Jose, CA, USA).

O=C1c2ccccc2-n2c1nc1ccccc1c2=O [TRYP, indolo[2,1-b]quinazolin-6,12-dione]
CIA joint histopathology [1]: little cartilage erosion, synovial hyperplasia, or cellular infiltration
CIA symptoms (clinical score) [1]: significant reductions in CIA symptoms
CAIA joint histopathology [2]: little cartilage erosion, synovial hyperplasia, or cellular infiltration
severity of CAIA (mean arthritis score) [2]: significant reductions in the severity of CAIA
therapeutic effect in CAIA compared to IQ-1S [2]: significantly greater
IC50 [3]: 7.8 ± 2 µM

O=c1c2ccccc2nc2n1-c1ccccc1/C2=N/O [TRYP-Ox, tryptanthrin-6-oxime]
CIA joint histopathology [1]: little cartilage erosion, synovial hyperplasia, or cellular infiltration
CIA symptoms (clinical score) [1]: significant reductions in CIA symptoms
CAIA joint histopathology [2]: little cartilage erosion, synovial hyperplasia, or cellular infiltration
severity of CAIA (mean arthritis score) [2]: significant reductions in the severity of CAIA
therapeutic effect in CAIA compared to IQ-1S [2]: significantly greater
IC50 [3]: 2.6 ± 0.8 µM
